Laboratory results from patent US7928139B2 (Amgen Inc., priority 2006, dated 2011).
pIC50: −log10 of the molar value.

Target: HIF PHD2 (Homo sapiens, UniProt Q9GZT9)
Experiment: PHD2 inhibition assay (TR-FRET, VCB-Eu detection of hydroxylated P564-HIF1α peptide)
Format: biochemical
Conditions: 2 nM PHD2, 100 nM P564-HIF1α peptide, 0.25 μM 2-oxoglutarate, 100 μM FeCl2, 2 mM ascorbic acid
Procedure: Inhibition of HIF PHD2 activity was quantified utilizing the TR-FRET technology. HIF PHD2 catalyzes a hydroxyl modification on the proline residue of the P564-HIF1α peptide substrate (Biotin-DLEMLAPYIPMDDDFQL (SEQ ID NO: 7)) resulting in recognition and binding of the europylated Von Hippel-Lindau protein (pVHL), elongin B and elongin C heterotrimeric (VCB-Eu) complex.
The PHD2 inhibition assay was executed by addition of freshly dissolved FeCl2 to 178.57 μM (100 μM final concentration) in PHD2 Reaction Buffer containing 30 mM MES, pH 6, 10 mM NaCl, 0.25% Brij-35, 0.01% BSA, and 1% DMSO. 28 μL of the iron solution and 2 μL of inhibitor compounds serially diluted in 100% DMSO (5% DMSO final) were added to black polypropylene 96-well microtiter plates. To that, 10 μL of 10 nM PHD2 (2 nM final) was added to all wells of the plate except for the 8 wells of column 12 (LO control), and allowed to incubate at room temperature on the shaker for one hour. Column 6 was the HI control containing PHD2 enzyme and 5% DMSO vehicle, but no inhibitor compound. To initiate the PHD2 enzymatic reaction, 10 μL of a solution containing 500 nM P564-HIF1α peptide (100 nM final), 10 mM ascorbic acid (2 mM final), and 1.25 μM 2-oxoglutarate (α-ketoglutarate; 0.25 μM final) in PHD2 Reaction Buffer was added to all wells of the plate and allowed to incubate on the shaker at room temperature for one hour.
The reaction was terminated by addition of 25 μL TR-FRET Buffer (50 mM TRIS-HCl, pH 9, 100 mM NaCl, 0.05% BSA, and 0.5% Tween-20) containing 150 mM succinate (product inhibitor; 50 mM final), 75 nM streptavidin-APC (25 nM final), and 7.5 nM VCB-Eu (2.5 nM final). The TR-FRET detection reagents were placed on a shaker for 1 hour to reach binding equilibrium before reading on the Discovery platform (PerkinElmer). Europium is excited at 315 nm and phosphoresces at 615 nm with a large Stoke's shift. APC, in turn, emits at 655 nm upon excitation at 615 nm. The TR-FRET signal is measured as the ratio of the APC 655 nm signal divided by the internal europium reference 615 nm emission signal.
The POC (percentage of control) was determined by comparing the signal from hydroxylated peptide substrate in the enzyme reaction containing inhibitor compound with that from PHD2 enzyme with DMSO vehicle alone (HI control), and no enzyme (LO control). POC was calculated using the formula: % control (POC)=(cpd−average LO)/(average HI−average LO)*100. Data (consisting of POC and inhibitor concentration in μM) was fitted to a 4-parameter equation (y=A+((B−A)/(1+((x/C)^D))), where A is the minimum y (POC) value, B is the maximum y (POC), C is the x (cpd concentration) at the point of inflection and D is the slope factor) using a Levenburg-Marquardt non-linear regression algorithm.

Sequence of HIF PHD2 (Q9GZT9 whole entry): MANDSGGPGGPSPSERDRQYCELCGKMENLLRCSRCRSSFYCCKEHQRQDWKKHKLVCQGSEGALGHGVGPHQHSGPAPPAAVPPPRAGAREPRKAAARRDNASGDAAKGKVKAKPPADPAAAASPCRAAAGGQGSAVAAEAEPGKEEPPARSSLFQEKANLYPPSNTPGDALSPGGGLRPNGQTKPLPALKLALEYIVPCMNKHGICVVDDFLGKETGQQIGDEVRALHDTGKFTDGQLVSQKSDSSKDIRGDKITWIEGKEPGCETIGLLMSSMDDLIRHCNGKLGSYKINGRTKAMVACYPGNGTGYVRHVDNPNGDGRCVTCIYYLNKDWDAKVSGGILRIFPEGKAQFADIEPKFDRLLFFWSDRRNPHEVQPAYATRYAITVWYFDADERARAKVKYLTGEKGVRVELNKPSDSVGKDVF

| SMILES | pIC50 |
| --- | --- |
| COc1ccc2c(c1)C(O)=C(C(=O)NCC(=O)O)C(=O)C21CCOCC1 [Example 16, N-((4-Hydroxy-6-(methyloxy)-2-oxo-2′,3′,5′,6′-tetrahydro-spiro[naphthalene-1,4′-pyran]-3-yl)carbonyl)glycine] | > 7.00 |
| O=C(O)CNC(=O)C1=C(O)c2cc(F)ccc2C2(CCOCC2)C1=O [Example 17, N-((6-Fluoro-4-hydroxy-2-oxo-2′,3′,5′,6′-tetrahydro-spiro[naphthalene-1,4′-pyran]-3-yl)carbonyl)glycine] | > 7.00 |
| COc1cccc2c1C(O)=C(C(=O)NCC(=O)O)C(=O)C21CCOCC1 [Example 18, N-((5-Methoxy-4-hydroxy-2-oxo-2′,3′,5′,6′-tetrahydro-spiro[naphthalene-1,4′-pyran]-3-yl)carbonyl)glycine] | > 7.00 |
| COc1ccc2c(c1)C1(CCOCC1)C(=O)C(C(=O)NCC(=O)O)=C2O [Example 19, N-((4-Hydroxy-7-(methyloxy)-2-oxo-2′,3′,5′,6′-tetrahydro-spiro[naphthalene-1,4′-pyran]-3-yl)carbonyl)glycine] | > 7.00 |
| CC1(C)C(=O)C(C(=O)NCC(=O)O)=C(O)c2ccc(OCc3ccccc3)c(F)c21 [Example 20, N-((8-Fluoro-4-hydroxy-1,1-dimethyl-2-oxo-7-((phenylmethyl)oxy)-naphthalen-3-yl)carbonyl)glycine] | 6.30 to 7.00 |
| CC(C)COc1ccc2c(c1F)C(C)(C)C(=O)C(C(=O)NCC(=O)O)=C2O [Example 21, N-((8-Fluoro-4-hydroxy-1,1-dimethyl-7-((2-methylpropyl)oxy)-2-oxo-naphthalen-3-yl)carbonyl)glycine] | 6.30 to 7.00 |
| COc1ccc2c(c1F)C(C)(C)C(=O)C(C(=O)NCC(=O)O)=C2O [Example 22, N-((8-Fluoro-4-hydroxy-1,1-dimethyl-7-(methyloxy)-2-oxo-naphthalen-3-yl)carbonyl)glycine] | 6.30 to 7.00 |
| CC1(C)C(=O)C(C(=O)NCC(=O)O)=C(O)c2ccc(O)c(F)c21 [Example 23, N-((8-Fluoro-4,7-dihydroxy-1,1-dimethyl-2-oxo-naphthalen-3-yl)carbonyl)glycine] | > 7.00 |
| CC1(C)C(=O)C(C(=O)NCC(=O)O)=C(O)c2ccc(F)c(F)c21 [Example 24, N-((7,8-Difluoro-4-hydroxy-1,1-dimethyl-2-oxo-naphthalen-3-yl)carbonyl)glycine] | > 7.00 |
| O=C(O)CNC(=O)C1=C(O)c2cc(Cl)ccc2C2(CCCC2)C1=O [Example 25, N-((6′-Chloro-4′-hydroxy-2′-oxo-spiro[cyclopentane-1,1′-naphthalen]-3′-yl)carbonyl)glycine] | 6.30 to 7.00 |
| CC1(C)C(=O)C(C(=O)NCC(=O)O)=C(O)c2c(C(F)(F)F)cccc21 [Example 26, N-((4-Hydroxy-1,1-dimethyl-2-oxo-5-(trifluoromethyl)-naphthalen-3-yl)carbonyl)glycine] | 6.30 to 7.00 |
| CC1(C)C(=O)C(C(=O)NCC(=O)O)=C(O)c2cccc(F)c21 [Example 27, N-((8-Fluoro-4-hydroxy-1,1-dimethyl-2-oxo-naphthalen-3-yl)carbonyl)glycine] | > 7.00 |
| CC1(C#N)C(=O)C(C(=O)NCC(=O)O)=C(O)c2ccccc21 (centres unmarked) [Example 28, N-((1-Cyano-4-hydroxy-1-methyl-2-oxo-naphthalen-3-yl)carbonyl)glycine] | > 7.00 |
| CC1(C)C(=O)C(C(=O)NCC(=O)O)=C(O)c2ccc(Cl)c(Cl)c21 [Example 31, N-((7,8-Dichloro-4-hydroxy-1,1-dimethyl-2-oxo-naphthalen-3-yl)carbonyl)glycine] | > 7.00 |
| CC1(C)C(=O)C(C(=O)NCC(=O)O)=C(O)c2cc(-c3ccc(F)cc3)ccc21 [Example 32, N-((6-(4-Fluorophenyl)-4-hydroxy-1,1-dimethyl-2-oxo-naphthalen-3-yl)carbonyl)glycine] | 6.30 to 7.00 |
| CSc1ccc2c(c1)C(O)=C(C(=O)NCC(=O)O)C(=O)C2(C)C [Example 33, N-((4-Hydroxy-1,1-dimethyl-6-(methylthio)-2-oxo-naphthalen-3-yl)carbonyl)glycine] | > 7.00 |

| SMILES | pIC50 |
| --- | --- |
| CC1(c2ccc(Cl)cc2)C(=O)C(C(=O)NCC(=O)O)=C(O)c2cc(Cl)ccc21 (centres unmarked) [Example 34, N-((6-Chloro-1-(4-chlorophenyl)-4-hydroxy-1-methyl-2-oxo-naphthalen-3-yl)carbonyl)glycine] | 6.30 to 7.00 |
| CN(C)c1ccccc1-c1ccc2c(c1)C(O)=C(C(=O)NCC(=O)O)C(=O)C2(C)C [Example 35, N-((6-(2-(Dimethylamino)phenyl)-4-hydroxy-1,1-dimethyl-2-oxo-naphthalen-3-yl)carbonyl)glycine] | 6.30 to 7.00 |
| CN(C)c1ccc(-c2ccc3c(c2)C(O)=C(C(=O)NCC(=O)O)C(=O)C3(C)C)cc1 [Example 36, N-((6-(4-(Dimethylamino)phenyl)-4-hydroxy-1,1-dimethyl-2-oxo-naphthalen-3-yl)carbonyl)glycine] | 6.30 to 7.00 |
| CC1(C)C(=O)C(C(=O)NCC(=O)O)=C(O)c2cc(-c3ccccc3Cl)ccc21 [Example 37] | 6.00 to 6.30 |
| CC1(C)C(=O)C(C(=O)NCC(=O)O)=C(O)c2cc(-c3ccc(Cl)cc3)ccc21 [Example 38, N-((6-(4-Chlorophenyl)-4-hydroxy-1,1-dimethyl-2-oxo-naphthalen-3-yl)carbonyl)glycine] | 6.00 to 6.30 |
| CN(C)c1cccc(-c2ccc3c(c2)C(O)=C(C(=O)NCC(=O)O)C(=O)C3(C)C)c1 [Example 39, N-((6-(3-(Dimethylamino)phenyl)-4-hydroxy-1,1-dimethyl-2-oxo-naphthalen-3-yl)carbonyl)glycine] | 6.30 to 7.00 |
| CC1(C)C(=O)C(C(=O)NCC(=O)O)=C(O)c2cc(Br)ccc21 [Example 40, N-((6-Bromo-4-hydroxy-1,1-dimethyl-2-oxo-naphthalen-3-yl)carbonyl)glycine] | > 7.00 |
| CC1(C)C(=O)C(C(=O)NCC(=O)O)=C(O)c2ccc(C#N)cc21 [Example 41, N-((7-Cyano-4-hydroxy-1,1-dimethyl-2-oxo-naphthalen-3-yl)carbonyl)glycine] | > 7.00 |
| CC1(C)C(=O)C(C(=O)NCC(=O)O)=C(O)c2cc(C#N)ccc21 [Example 42, N-((6-Cyano-4-hydroxy-1,1-dimethyl-2-oxo-naphthalen-3-yl)carbonyl)glycine] | > 7.00 |
| CCC1(C)C(=O)C(C(=O)NCC(=O)O)=C(O)c2ccc(Cl)cc21 (centres unmarked) [Example 43, N-((7-Chloro-1-ethyl-4-hydroxy-1-methyl-2-oxo-naphthalen-3-yl)carbonyl)glycine] | 6.30 to 7.00 |
| O=C(O)CNC(=O)C1=C(O)c2ccc(F)cc2C2(CCOCC2)C1=O [Example 44, N-((7-Fluoro-4-hydroxy-2-oxo-2′,3′,5′,6′-tetrahydro-spiro[naphthalene-1,4′-pyran]-3-yl)carbonyl)glycine] | > 7.00 |
| O=C(O)CNC(=O)C1=C(O)c2ccc(C(F)(F)F)cc2C2(CCOCC2)C1=O [Example 45, N-((7-Trifluoromethyl-4-hydroxy-2-oxo-2′,3′,5′,6′-tetrahydro-spiro[naphthalene-1,4′-pyran]-3-yl)carbonyl)glycine] | > 7.00 |
| O=C(O)CNC(=O)C1=C(O)c2ccc(Cl)cc2C2(CCOCC2)C1=O [Example 46, N-((7-Chloro-4-hydroxy-2-oxo-2′,3′,5′,6′-tetrahydro-spiro[naphthalene-1,4′-pyran]-3-yl)carbonyl)glycine] | > 7.00 |
| CC1(C)C(=O)C(C(=O)NCC(=O)O)=C(O)c2ccc(F)cc21 [Example 47, N-((7-Fluoro-4-hydroxy-1,1-dimethyl-2-oxo-naphthalen-3-yl)carbonyl)glycine] | > 7.00 |
| CC1(C)C(=O)C(C(=O)NCC(=O)O)=C(O)c2ccc(Cl)cc21 [Example 48, N-((7-Chloro-4-hydroxy-1,1-dimethyl-2-oxo-naphthalen-3-yl)carbonyl)glycine] | > 7.00 |
| CC1(C)C(=O)C(C(=O)NCC(=O)O)=C(O)c2ccc(C(F)(F)F)cc21 [Example 49, N-((7-Trifluoromethyl-4-hydroxy-1,1-dimethyl-2-oxo-naphthalen-3-yl)carbonyl)glycine] | > 7.00 |
